Experimental data from article PMC7893776, “Selecting an anti-malarial clinical candidate from two potent dihydroisoquinolones” (Malaria Journal, 2021).
Where two headings read alike, the source gives them in different places. Marks after values point to notes of the source that are not given here.

What was measured:
[1] = pKa by potentiometric titration; type: physicochemical
Method: Octanol/pH 7.4 buffer partitioning experiments were conducted using a shake flask method, and pKa was assessed by potentiometric titration. Both methods have been described previously.

Kinetic solubility = type: physicochemical
Method: Solubility assays were carried out on a Biomek FX lab automation workstation (Beckman Coulter, Inc., Fullerton, CA) using µSOL Evolution software (pION Inc., Woburn, MA). Compound stock (10 mM in DMSO, 10 µL) was added to 1-propanol (190 µL) to make a reference stock plate. Reference stock solution (5 µL) was mixed with 1-propanol (70 µL) and citrate phosphate buffered saline (75 µL) to make the reference plate and the UV spectrum (250 nm–500 nm) of the […] was read. Test compound stock (10 mM in DMSO, 6 µL) was added to buffer (594 µL) in a 96-well storage plate and mixed. The storage plate was sealed and incubated at room temperature for 18 h. The suspension was then filtered through a 96-well filter plate (pION Inc., Woburn, MA). Filtrate (75 µL) was mixed with 1-propanol (75 µL) to make the sample plate, and the UV spectrum (250 nm – 500 nm) of the sample plate was read. Calculation was carried out by µSOL Evolution software based on the […] (area under curve) of UV spectrum of the sample plate and the reference plate. All compounds were tested in triplicate.

[2] = Parallel artificial membrane permeability assay (PAMPA); type: in vitro ADME
Method: The assay was conducted using a Biomek FX lab automation workstation (Beckman Coulter, Inc., Fullerton, CA) with PAMPA evolution 96 command software (pION Inc., Woburn, MA). Test compound stock (10 mM in DMSO, 3 µL) was mixed with citrate phosphate buffered saline (597 µL) to make diluted test compound. Diluted test compound (150 µL) was transferred to a UV plate (pION Inc., Woburn, MA) and the UV spectrum (250–500 nm) was read as the reference plate. Each well of the donor plate in a PAMPA sandwich plate (pION Inc., Woburn, MA) contained a filter that was painted on one side with 4 µL GIT lipid (pION Inc., Woburn, MA) to form a membrane. Each well in the acceptor plate in a PAMPA sandwich, preloaded with magnetic stir bars, was filled with acceptor solution buffer (200 µL, pION Inc., Woburn, MA). The donor plate was filled with diluted test compound (180 µL). The combined PAMPA plate was placed on a pIon Gut-box™ and stirred for 30 min. The UV spectrum (250–500 nm) of the donor and the acceptor were read. The permeability coefficient and recovery were calculated using PAMPA evolution 96 command software (pION Inc., Woburn, MA) based on the whole spectrum measured from the reference plate, the donor plate, and the acceptor plate. All compounds were tested in triplicate.

[3] = parameters: method as in PMID 31898492; details: human whole blood; cited from earlier work
[4] = test system: recombinant human CYP1A1, 1A2, 1B1, 2B6, 2C8, 2C9, 2C19, 2D6, 3A4; assay: Recombinant human cytochrome P450 (rhCYP) metabolism; type: in vitro ADME
Method: SJ733 was first pre-incubated with Bactosomes™ (Cypex Ltd, final P450 concentration: CYP1A1 25 pmol/mL, CYP1A2 100 pmol/mL,CYP1B1 100 pmol/mL, CYP2B6 100 pmol/mL, CYP2C8 50 pmol/mL, CYP2C9, 25 pmol/mL, CYP2C19 100 pmol/mL, CYP2D6 50 pmol/mL and CYP3A4 25 pmol/mL, 0.1 M phosphate buffer pH 7.4) at 37 °C prior to the addition of NADPH (final concentration 1 mM) to initiate the reaction with a final incubation volume of 50 μL. Incubations were also performed using control Bactosomes™ (no P450 enzymes present) to reveal any non-enzymatic degradation. Control compounds known to be metabolized specifically by each P450 isoform were included individually. Test articles and controls were incubated with each isoform for 0, 5, 15, 30, and 45 min. The reactions were stopped by transferring 20 μL of the reaction mixture to 60 μL methanol at the appropriate timepoints.

[5] = Storage stability of samples at −80 °C; details: stored at − 80 °C for more than 14 days, ± 15% variance
Description: All plasma samples that were shipped elsewhere from the testing facility were all analyzed within the validated stability time period.

[6] = parameters: method as in PMID 31898492; details: octanol/pH 7.4 buffer, averaged from high and low concentration partition samples; cited from earlier work
[7] = parameters: method as in earlier work; details: 6 h, cited from earlier work

Row | storage stability [5] | Structure (SMILES) | Kinetic solubility (Kinetic solubility; pH 3) | Kinetic solubility (Kinetic solubility; pH 5) | Kinetic solubility (Kinetic solubility; pH 7.4) | Permeability, PAMPA ([2]; pH 3) | Permeability, PAMPA ([2]; pH 5) | Permeability, PAMPA ([2]; pH 7.4) | also measured
1 |  | N#Cc1cc(NC(=O)C2c3ccccc3C(=O)N(CC(F)(F)F)C2c2cn[nH]c2)ccc1F (racemic) [(r)-SJ311] | 80 ± 7 µM | 80 ± 7 µM | 66 ± 7 µM | 17 ± 2.3 10^–6 cm/s | 15 ± 6.7 10^–6 cm/s | 9.4 ± 7.0 10^–6 cm/s | pKa [1]: 11.1 ± 0.3
2 |  | N#Cc1cc(NC(=O)C2c3ccccc3C(=O)N(CC(F)(F)F)C2c2cccnc2)ccc1F (racemic) [(r)-SJ733] | 84 ± 3 µM | 84 ± 3 µM | 65 ± 4 µM | 66 ± 3.5 10^–6 cm/s | 380 ± 7.2 10^–6 cm/s | 350 ± 130 10^–6 cm/s | B/P ratio [3]: 0.72 ± 0.02^b
3 | stable | N#Cc1cc(NC(=O)[C@H]2c3ccccc3C(=O)N(CC(F)(F)F)[C@@H]2c2cccnc2)ccc1F (racemic) [SJ733] |  |  |  |  |  |  | formation of metabolites ([4]; incubation with CYP1A1, 1A2, 1B1, 2B6, 2C9, or 2C19 recombinant enzymes): no detectable formation of metabolites; formation of metabolites ([4]; incubations with CYP2C8, 2D6, and 3A4 recombinant enzymes): Metabolite formation was only observed
4 |  | N#Cc1cc(NC(=O)[C@H]2c3ccccc3C(=O)N(CC(F)(F)F)[C@@H]2c2cccnc2)ccc1F [(+)-SJ733] |  |  |  |  |  |  | LogD (7.4) Shake flask [6]: 3.90 ± 0.01^a,b; Solubility ([7]; FaSSIF-V2 pH 6.5, 37°C): 216^b µM; Solubility ([7]; FeSSIF-V2 pH 5.8, 37°C): 254^b µM; Solubility ([7]; Phosphate buffer pH 7.4, 37°C): 246^b µM
5 | stable | N#Cc1cc(NC(=O)[C@H]2c3ccccc3C(=O)N(CC(F)(F)F)[C@@H]2c2cn[nH]c2)ccc1F [SJ311] |  |  |  |  |  |  | 
